The values that follow come from patent publication US8236792B2, “Substituted pyrrolidine amides as modulators of the histamine H3 receptor” (Janssen Pharmaceutica NV, priority 2008, dated 2012).

In the first test the target is human H3 receptor (Homo sapiens, UniProt Q9Y5N1). The experiment in a line: H3 Receptor Binding (Human) Method 2, [125I]-iodoproxyfan competitive radioligand binding. The arrangement: expressed in transfected cells.
human H3 receptor, sequence (Q9Y5N1 whole entry): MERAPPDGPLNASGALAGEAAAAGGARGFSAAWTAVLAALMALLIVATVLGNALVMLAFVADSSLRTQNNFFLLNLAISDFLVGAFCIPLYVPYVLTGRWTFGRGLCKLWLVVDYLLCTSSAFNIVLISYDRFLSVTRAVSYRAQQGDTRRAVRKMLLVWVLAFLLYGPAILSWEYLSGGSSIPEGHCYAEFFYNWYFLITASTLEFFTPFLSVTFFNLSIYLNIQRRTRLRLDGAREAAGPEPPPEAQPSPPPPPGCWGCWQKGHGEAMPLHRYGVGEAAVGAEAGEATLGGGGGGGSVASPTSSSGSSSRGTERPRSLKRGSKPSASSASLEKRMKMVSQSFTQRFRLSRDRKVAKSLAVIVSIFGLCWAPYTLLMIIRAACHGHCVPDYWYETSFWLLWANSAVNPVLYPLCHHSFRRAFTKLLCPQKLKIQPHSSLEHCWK
Details: not given
`O=C([C@H]1C[C@H](Oc2ccccn2)CN1)N1CCCN(C2CCC2)CC1` [Example 98, (2R,4S)-2-(4-Cyclobutyl-[1,4]diazepane-1-carbonyl)-4-(pyridin-2-yloxy)-pyrrolidine] had a Ki of 5 nM.

`CC(=O)N1C[C@@H](Oc2cccc(F)c2)C[C@H]1C(=O)N1CCCN(C2CCC2)CC1` [Example 115, (2S,4S)-1-[2-(4-Cyclobutyl-[1,4]diazepane-1-carbonyl)-4-(3-fluoro-phenoxy)-pyrrolidin-1-yl]-ethanone]: the Ki worked out at 21 nM.

The molecule `CC(=O)N1C[C@H](Oc2cccc(F)c2)C[C@H]1C(=O)N1CCCN(C2CCC2)CC1` [Example 129, (2S,4R)-1-[2-(4-Cyclobutyl-[1,4]diazepane-1-carbonyl)-4-(3-fluoro-phenoxy)-pyrrolidin-1-yl]-ethanone] showed a Ki of 379 nM.

On to `CC(=O)N1C[C@H](Oc2cccc(F)c2)C[C@@H]1C(=O)N1CCCN(C2CCC2)CC1` [Example 130], for which the Ki amounted to 569 nM.

The same test, now with this note: Method 2; SK-N-MC cell membranes; [125I]-iodoproxyfan 1 nM; apparent Ki; free base or hydrochloride salt; average of results; read-out: Human H3 Ki.
On to `CC(C)N1C[C@@H](Oc2ccc(F)cc2)C[C@@H]1C(=O)N1CCCN(C2CCC2)CC1` [Example 112, (2R,4S)-1-Isopropyl-1-cyclobutyl-2-(4-cyclobutyl-[1,4]diazepane-1-carbonyl)-4-(4-fluoro-phenoxy)-pyrrolidine], for which the Ki is 12 nM.

For `CCOC(=O)N1C[C@@H](Oc2cccc(F)c2)C[C@@H]1C(=O)N1CCCN(C2CCC2)CC1` [Example 127, (2R,4S)-2-(4-Cyclobutyl-[1,4]diazepane-1-carbonyl)-4-(3-fluoro-phenoxy) pyrrolidine-1-carboxylic acid ethyl ester], the Ki turned out to be 16 nM.

The same test, now with this note: read-out: Human H3 Ki.
Take `CC(C)(C)OC(=O)N1C[C@@H](Oc2ccsc2)C[C@@H]1C(=O)N1CCCN(C2CCC2)CC1` [Example 54, (2R,4S)-2-(4-Cyclobutyl-[1,4]diazepane-1-carbonyl)-4-(thiophen-3-yloxy)-pyrrolidine-1-carboxylic acid tert-butyl ester]: the Ki was found to be 11 nM.

Turning to `CC(C)(C)OC(=O)N1C[C@H](Oc2cccc(F)c2)C[C@@H]1C(=O)N1CCCN(C2CCC2)CC1` [Example 55, (2R,4R)-2-(4-Cyclobutyl-[1,4]diazepane-1-carbonyl)-4-(3-fluoro-phenoxy)-pyrrolidine-1-carboxylic acid tert-butyl ester], the Ki turned out to be 57 nM.

`CC(C)(C)OC(=O)N1C[C@H](Oc2ccc(F)cc2)C[C@@H]1C(=O)N1CCCN(C2CCC2)CC1` [Example 56, (2R,4R)-2-(4-Cyclobutyl-[1,4]diazepane-1-carbonyl)-4-(4-fluoro-phenoxy)-pyrrolidine-1-carboxylic acid tert-butyl ester]: the Ki amounted to 49 nM.

`CC(C)(C)OC(=O)N1C[C@H](Oc2ccc(Cl)cc2)C[C@@H]1C(=O)N1CCCN(C2CCC2)CC1` [Example 57, (2R,4R)-4-(4-Chloro-phenoxy)-2-(4-cyclobutyl-[1,4]diazepane-1-carbonyl)-pyrrolidine-1-carboxylic acid tert-butyl ester]: the Ki worked out at 93 nM.

Take `CC(C)(C)OC(=O)N1C[C@H](Oc2ccccc2)C[C@@H]1C(=O)N1CCCN(C2CCC2)CC1` [Example 58, (2R,4R)-2-(4-Cyclobutyl-[1,4]diazepane-1-carbonyl)-4-phenoxy-pyrrolidine-1-carboxylic acid tert-butyl ester]: the Ki was 211 nM.

`CC(C)(C)OC(=O)N1C[C@H](Oc2ccc(C#N)cc2)C[C@@H]1C(=O)N1CCCN(C2CCC2)CC1` [Example 60, (2R,4R)-4-(4-Cyano-phenoxy)-2-(4-cyclobutyl-[1,4]diazepane-1-carbonyl)-pyrrolidine-1-carboxylic acid tert-butyl ester]: the Ki came to 160 nM.

Take `CC(C)(C)OC(=O)N1C[C@@H](Sc2ccc(F)cc2)C[C@@H]1C(=O)N1CCCN(C2CCC2)CC1` [Example 61, (2R,4S)-2-(4-Cyclobutyl-[1,4]diazepane-1-carbonyl)-4-(4-fluoro-phenylsulfanyl)-pyrrolidine-1-carboxylic acid tert-butyl ester]: the Ki was found to be 17 nM.

Take `Cc1cccc(O[C@@H]2CN[C@@H](C(=O)N3CCCN(C4CCC4)CC3)C2)c1` [Example 74, (2R,4S)-4-(4-m-Tolyloxy)-2-(4-cyclobutyl-[1,4]diazepane-1-carbonyl)-pyrrolidine]: the Ki amounted to 5 nM.

On to `O=C([C@H]1C[C@H](Oc2ccc(C(F)(F)F)cc2)CN1)N1CCCN(C2CCC2)CC1` [Example 75, (2R,4S)-4-(4-Trifluoromethyl-phenoxy)-2-(4-cyclobutyl-[1,4]diazepane-1-carbonyl)-pyrrolidine], for which the Ki stood at 4 nM.

Consider `Cc1ccc(O[C@@H]2CN[C@@H](C(=O)N3CCCN(C4CCC4)CC3)C2)cc1` [Example 76, (2R,4S)-4-(4-p-Tolyloxy)-2-(4-cyclobutyl-[1,4]diazepane-1-carbonyl)-pyrrolidine], for which the Ki was 5 nM.

Turning to `Cc1ccccc1O[C@@H]1CN[C@@H](C(=O)N2CCCN(C3CCC3)CC2)C1` [Example 77, (2R,4S)-4-(4-o-Tolyloxy)-2-(4-cyclobutyl-[1,4]diazepane-1-carbonyl)-pyrrolidine], the Ki is 3 nM.

Regarding `O=C([C@H]1C[C@H](Oc2ccc(F)cc2)CN1)N1CCCN(C2CC2)CC1` [Example 78, (2R,4S)-2-(4-Cyclopropyl-[1,4]diazepane-1-carbonyl)-4-(4-fluoro-phenoxy)-pyrrolidine], the Ki came to 20 nM.

On to `N#Cc1ccc(O[C@@H]2CN[C@@H](C(=O)N3CCCN(C4CC4)CC3)C2)cc1` [Example 79, (2R,4S)-4-(4-Cyano-phenoxy)-2-(4-cyclopropyl-[1,4]diazepane-1-carbonyl)-pyrrolidine], for which the Ki was 12 nM.

With `O=C([C@H]1C[C@H](Oc2ccc(F)cc2)CN1)N1CCN(C2CCCC2)CC1` [Example 80, (2R,4S)-2-(4-Cyclopentyl-piperazine-1-carbonyl)-4-(4-fluoro-phenoxy)-pyrrolidine], the Ki worked out at 40 nM.

Turning to `N#Cc1ccc(O[C@@H]2CN[C@@H](C(=O)N3CCN(C4CCCC4)CC3)C2)cc1` [Example 81, (2R,4S)-4-(4-Cyano-phenoxy)-2-(4-cyclopentyl-piperazine-1-carbonyl)-pyrrolidine], the Ki stood at 23 nM.

Consider `CN(C)[C@H]1CCN(C(=O)[C@H]2C[C@H](Oc3cccc(F)c3)CN2)C1` [Example 85], for which the Ki came out at 1300 nM.

On to `Cc1cnc(F)cc1O[C@@H]1CN[C@@H](C(=O)N2CCCN(C3CCC3)CC2)C1` [Example 99, (2R,4S)-2-(4-Cyclobutyl-[1,4]diazepane-1-carbonyl)-4-(2-fluoro-5-methyl-pyridin-4-yloxy)-pyrrolidine], for which the Ki came to 2 nM.

On to `Cc1cnc(O[C@@H]2CN[C@@H](C(=O)N3CCCN(C4CCC4)CC3)C2)cc1I` [Example 100, (2R,4S)-2-(4-Cyclobutyl-[1,4]diazepane-1-carbonyl)-4-(4-iodo-5-methyl-pyridin-2-yloxy)-pyrrolidine], for which the Ki stood at 2 nM.

In the case of `O=C([C@H]1C[C@H](Oc2cccnc2)CN1)N1CCCN(C2CCC2)CC1` [Example 101, (2R,4S)-2-(4-Cyclobutyl-[1,4]diazepane-1-carbonyl)-4-(Pyridin-3-yloxy)-pyrrolidine], the Ki came to 3 nM.

Turning to `CC(C)N1C[C@@H](Oc2ccc(F)cc2)C[C@H]1C(=O)N1CCCN(C2CCC2)CC1` [Example 108, (2S,4S)-(4-Cyclobutyl-[1,4]diazepan-1-yl)-[4-(4-fluoro-phenoxy)-1-isopropyl-pyrrolidin-2-yl]-methanone], the Ki is 594 nM.

On to `CCN1C[C@@H](Oc2ccc(F)cc2)C[C@H]1C(=O)N1CCCN(C2CCC2)CC1` [Example 109, (2S,4S)-(4-Cyclobutyl-[1,4]diazepan-1-yl)-[1-ethyl-4-(4-fluoro-phenoxy)-pyrrolidin-2-yl]-methanone], for which the Ki stood at 55 nM.

Consider `O=C([C@H]1C[C@H](Oc2ccc(F)cc2)CN1C1CCC1)N1CCCN(C2CCC2)CC1` [Example 111, (2R,4S)-1-Cyclobutyl-2-(4-cyclobutyl-[1,4]diazepane-1-carbonyl)-4-(4-fluoro-phenoxy)-pyrrolidine], for which the Ki amounted to 17 nM.

Turning to `O=C([C@H]1C[C@H](Oc2ccc(F)cc2)CN1CC1CC1)N1CCCN(C2CCC2)CC1` [Example 113, (2R,4S)-1-Cyclopropylmethyl-2-(4-cyclobutyl-[1,4]diazepane-1-carbonyl)-4-(4-fluoro-phenoxy)-pyrrolidine], the Ki is 7 nM.

Take `CC(C)C(=O)N1C[C@@H](Oc2cccc(F)c2)C[C@@H]1C(=O)N1CCCN(C2CCC2)CC1` [Example 123, (2R,4S)-1-[2-(4-Cyclobutyl-[1,4]diazepane-1-carbonyl)-4-(3-fluoro-phenoxy)-pyrrolidin-1-yl]-2-methyl-propan-1-one]: the Ki came out at 18 nM.

With `CCC(=O)N1C[C@@H](Oc2cccc(F)c2)C[C@@H]1C(=O)N1CCCN(C2CCC2)CC1` [Example 125, (2R,4S)-1-[2-(4-Cyclobutyl-[1,4]diazepane-1-carbonyl)-4-(3-fluoro-phenoxy)-pyrrolidin-1-yl]-propan-1-one], the Ki was 3 nM.

Consider `CC(=O)N1C[C@@H](Oc2ccccn2)C[C@@H]1C(=O)N1CCCN(C2CCC2)CC1` [Example 132, (2R,4S)-1-[2-(4-Cyclobutyl-[1,4]diazepane-1-carbonyl)-4-(Pyridin-2-yloxy)-pyrrolidin-1-yl]-ethanone], for which the Ki was 3 nM.

On to `CC(=O)N1C[C@@H](Oc2cccnc2)C[C@@H]1C(=O)N1CCCN(C2CCC2)CC1` [Example 133, (2R,4S)-1-[2-(4-Cyclobutyl-[1,4]diazepane-1-carbonyl)-4-(Pyridin-3-yloxy)-pyrrolidin-1-yl]-ethanone], for which the Ki was determined as 3 nM.

Turning to `CC(=O)N1C[C@@H](Oc2cccs2)C[C@@H]1C(=O)N1CCCN(C2CCC2)CC1` [Example 135, (2R,4S)-1-[2-(4-Cyclobutyl-[1,4]diazepane-1-carbonyl)-4-(thiophen-2-yloxy)-pyrrolidin-1-yl]-ethanone], the Ki was 3 nM.

As to `CC(=O)N1C[C@@H](Oc2ccc3c(c2)OCCO3)C[C@@H]1C(=O)N1CCCN(C2CCC2)CC1` [Example 136, (2R,4S)-1-[2-(4-Cyclobutyl-[1,4]diazepane-1-carbonyl)-4-(2,3-dihydro-benzo[1,4]dioxin-6-yloxy)-pyrrolidin-1-yl]-ethanone], the Ki is 2 nM.
